Drawing on patent publication US5859042A, “Five membered heterocyclic compounds” (Ono Pharmaceutical Co., Ltd., priority 1997, dated 1999), this text covers IC50 for 24 molecules.

What is called IC50 is the concentration that gives 50% inhibition.

The target of the test is T1, 5α-reductase (Homo sapiens, UniProt P31213).
T1 construct: Frozen human prostates were thawed on ice and minced with scissors into small pieces; from tissue; host or cells: human prostate (frozen), washed 140,000×g membrane pellet
T1 sequence (P31213 1-254): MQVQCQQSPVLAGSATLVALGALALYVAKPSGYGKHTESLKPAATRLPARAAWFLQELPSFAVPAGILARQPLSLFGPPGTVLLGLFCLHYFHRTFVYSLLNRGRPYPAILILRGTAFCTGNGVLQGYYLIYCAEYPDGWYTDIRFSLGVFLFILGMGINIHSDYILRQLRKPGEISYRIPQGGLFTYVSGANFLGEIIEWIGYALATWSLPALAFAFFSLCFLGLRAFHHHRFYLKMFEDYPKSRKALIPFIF
The test can be described thus: inhibitory activity on 5α-reductase from human prostates (conversion of 14C-testosterone to DHT). Format: biochemical. The note with it: human prostatic 5α-reductase, pH 5.0, 1 μM 14C-testosterone, 1 mM NADPH, 30 min at 37° C. The method, then: (1) Preparation of 5α-reductase from human prostates
Frozen human prostates were thawed on ice and minced with scissors into small pieces (~1 mm^3). The minced tissue was homogenized in 3 tissue volumes of ice cold medium A (20 mM potassium phosphate, pH 6.5, containing 0.32M sucrose, 1 mM dithiothreitol, 50 μM NADPH, 1 mM EDTA), first with a Brinkmann Polytron and then with a Dounce homogenizer. The homogenate was filtered through gauze and the filtrate was centrifuged at 140,000×g at 4° C. for 60 min. The resulting pellet was washed with 3 tissue volumes of medium A. The washed pellet was suspended (5-10 mg protein/ml) in 20 mM potassium phosphate, pH 6.5, containing 20% glycerol, 50 μM NADPH and 1 mM dithiothreitol. An appropriate aliquot of this suspension was used as the source of 5α-reductase.
5α-reductase activity was determined by following the conversion of testosterone to 5α-dihydrotestosterone (DHT). In brief, buffer (100 mM Tris-citrate, pH5.0), 1 mM NADPH and human prostatic 5α-reductase(0.4-1 mg protein) were placed in test tubes. After addition of test compounds (dissolved in 5 μl in DMSO or EtOH) or solvents to the tubes, the solutions were preincubated at room temperature for 10 min. The reactions were initiated by addition of 1 μM ^14 C-testosterone to a final volume of 0.5 ml. Following 30 min incubation at 37° C., the reactions were stopped by addition of 5 ml dichloromethane. After centrifugation at 1000 rpm for 5 min, the organic phase (bottom) was collected and the volume reduced to ~100 μl in a 42° C. water bath. The solutions were applied to silica plates and the plates were developed in chloroform/ethyl acetate (3:1) at room temperature. The radioactivity profiles were determined by a BIOSCAN imaging scanner. The silica in sections identified by BIOSCAN and counted in a scintillation counter. Enzyme activity was calculated from the percent of recovered radio label converted to the product DHT.

The molecule `CCc1ccc(-c2ccc(C(=O)c3ccc(CC(=O)O)n3C)cc2)cc1` [Example 2] gave an IC50 (Table 1) of 24 nM. Regarding `Cn1c(CC(=O)O)ccc1C(=O)c1ccc(C2CCCCC2)cc1` [Example 3(1)], the IC50 (Table 1) worked out at 20 nM.

For the setting “Table 1”, `Cn1c(CC(=O)O)ccc1C(=O)c1ccc(-c2ccccc2)cc1` [Example 3(2)] returned an IC50 of 19 nM. `Cn1c(CC(=O)O)ccc1C(=O)c1ccc(C(=O)c2ccccc2)cc1` [Example 3(5)] came in with an IC50 (Table 1) of 210 nM. `Cn1c(CC(=O)O)ccc1C(=O)c1ccc(OCc2ccccc2)cc1` [Example 3(8)] showed an IC50 (Table 1) of 24 nM. Molecule `Cc1cc(OCc2ccccc2)ccc1C(=O)c1ccc(CC(=O)O)n1C` [Example 3(16)] returned an IC50 (Table 1) of 170 nM.

Take `O=C(O)Cc1ccc(C(=O)c2ccc(-c3ccccc3)cc2)s1` [Example 3(18)]: for the setting “Table 1”, 450 nM corresponded to half-maximal inhibition (IC50). In the case of `Cn1c(CC(=O)O)ccc1C(=O)c1ccc2c(c1)C(=O)c1ccccc1-2` [Example 3(20)], the IC50 (Table 1) stood at 130 nM. Under “Table 1”, `Cn1c(CC(=O)O)ccc1C(=O)CCCCc1ccccc1` [Example 3(22)] displayed an IC50 of 840 nM. Take `Cn1c(CC(=O)O)ccc1C(=O)c1ccc(CSc2ccccc2)cc1` [Example 3(41)]: where the note is “Table 1”, the midpoint of inhibition, the IC50, lay at 98 nM.

For the molecule `Cn1c(CC(=O)O)ccc1C(=O)c1ccc(/C=C/c2ccccc2)cc1` [Example 3(47)], the concentration for half-maximal inhibition (IC50) (Table 1) came out at 56 nM. For the molecule `Cn1c(CC(=O)O)ccc1C(=O)c1ccc(-n2cccc2)cc1` [Example 3(50)], the IC50 (Table 1) was found to be 160 nM. In turn, `Cn1c(CC(=O)O)ccc1C(=O)c1ccc(-c2cccs2)cc1` [Example 3(54)] returned an IC50 (Table 1) of 23 nM. On to `Cn1c(CC(=O)O)ccc1C(=O)c1ccc(-c2ccc(Br)s2)cc1` [Example 3(55)], for which it took 24 nM to reach half-maximal inhibition (Table 1) (IC50). Still for that read-out and setting: the same measure for `Cn1c(CC(=O)O)ccc1C(=O)c1ccc(-c2ccc(F)cc2)cc1` [Example 3(62)]: 41 nM; for `Cn1c(C(=O)O)ccc1C(=O)c1ccc(-c2ccccc2)cc1` [Example 3(70)]: 170 nM. For the setting “Table 1”, `Cn1c(CC(=O)O)ccc1C(=O)C1CCC(c2ccccc2)CC1` (stereo not drawn) [Example 3(77)] had a concentration for half-maximal inhibition (IC50) of 250 nM. Under “Table 1”, `Cn1c(CC(=O)O)ccc1C(=O)c1ccc(-c2cc(Cl)cc(Cl)c2)cc1` [Example 3(82)] displayed an IC50 of 630 nM. For the setting “Table 1”, `Cc1cc(C(=O)c2ccc(CC(=O)O)n2C)ccc1-c1ccccc1` [Example 3(83)] came in with an IC50 of 92 nM. For the molecule `CCCCCCOc1ccc(C(=O)c2ccc(CC(=O)O)n2C)cc1` [hexyloxy], for the setting “Table 2”, 170 nM corresponded to half-maximal inhibition (IC50). In turn, `Cn1c(CC(=O)O)ccc1C(=O)c1ccc(I)cc1` [iodo] had an IC50 (Table 2) of 440 nM. Turning to `CC(C)Cc1ccc(C(=O)c2ccc(CC(=O)O)n2C)cc1` [isobutyl], the IC50 (Table 2) stood at 74 nM. As to `Cc1ccc(C(=O)c2ccc(CC(=O)O)n2C)cc1` [methyl], for the setting “Table 2”, the IC50 stood at 8000 nM.

`Cn1c(CC(=O)O)ccc1C(=O)c1ccc(C(C)(C)C)cc1` [t-butyl] gave an IC50 (Table 2) of 400 nM.
